The values that follow come from patent publication US6770738B1, “Higher order structure and binding of peptide nucleic acids” (ISIS Pharmaceuticals, Inc., priority 1992, dated 2004).

In experiment [1] the test system is pTlO plasmid (dA10/dT10 insert) and corresponding plasmids linearized with CfrlOI. The experiment is described as follows: Site-specific S1 nuclease digestion of linearized plasmid complexed with PNA. The following applies: 145 units S1 nuclease, room temperature; each PNA with its corresponding plasmid. The experiment is classed as biochemical. The procedure:
PNA H-T10-LysNH2 (SEQ ID NO:2) was synthesized as described in Example 1. A pTlO plasmid was prepared from the pUC19 plasmid by inserting the dA10/dT10 (SEQ ID NO:3) sequence into the BamHl site of the polylinker as per the method of Egholm, N et al., J.A.C.S. 1992 114:1895-1897. The pTlO plasmid was linearized with CfrlOI restriction enzyme in the unique site. To form complex with the PNA, about0.1 μg of the linearized plasmid was incubated with 2 o.u./ml of PNA in 3 μl of the TE buffer (10 mM Tris-HCl; 1 mM EDTA, pH 7.4) at 37° C. To perform the S1 nuclease reaction, 10 μl of Na-Acetate buffer (33 mM NaAc; 50 mM NaCl; 10 mM ZnSO4; 0.5% of glycerol, pH 4.6) and 145 units of S1 nuclease (Sigma) were added and incubated for various time periods at room temperature. The reaction was terminated by adding 1 μl of 0.5 M EDTA and cooling to −20° C. Electrophoresis was performed in 1% agarose gel in the TBE buffer with subsequent staining with ethidium bromide. The results of this example are shown in FIG. 1 wherein the size of the markers are shown as are the incubation time periods. In FIG. 8 Lane 1: control—preincubation of DNA with PNA was performed under conditions unfavorable for complex formation (200 mM of NaCl). Lane 2: the reference band obtained by digestion with BamHI restriction enzyme. Lane 3: reference bands obtained by the digestion with Bgll restriction enzyme. […]

Experiment [2] relates to pT9CT9C plasmid linearized by CfrlOI. The experiment can be described thus: Site-specific S1 nuclease digestion of plasmid with two PNA sites complexed with PNA. The experiment is classed as biochemical. The following applies: 30 units S1 nuclease; target sites are for T5CT4. The text has this:
was cloned into the Sal1 site of the pUC19 plasmid. This plasmid, which contained two binding sites for PNA H-T5CT4-LysNH2 (SEQ ID NO:6) separated by six base pairs, was designated pT9CT9C. Strand displacement in the two T5CT4 sites led to opening of the entire region, including the sequence GTCGAC/GACGAC, providing a substrate for the S1 nuclease in both strands. As control, a pT9C-5 plasmid was used, which carried only one T5CT4 (SEQ ID NO:6) insert cloned into the SalI site of the pUC19 plasmid.
cloned in the Sal1 site of the pUC19 polylinker. The pT9C-5 plasmid carried the single insert A5GA4/CT5 (SEQ ID NO:4) cloned in the same site. The PNA-DNA complexes were prepared as described in Example 2 with the only difference being the duration of the incubation was 2 hours. Digestion by 30 units of the S1 nuclease was performed in the same buffer as described in Example 2 with two exceptions, lanes 2 and 4. In lane 2, 15 units of the enzyme were used, whereas in lane 4 200 mM NaCl and 1 mM of ZnSO4 were added to the buffer. Lane 1: the reference band obtained by digestion with the BamHI restriction enzyme of the pUC 19 plasmid linearized by the CfrlOI restriction enzyme. Lanes 2-4 site-specific digestion by the S1 nuclease of the linearized pT9C plasmid complexed with PNA H-T5CT4-LysNH2 (SEQ ID NO:6). Lanes 5-7: various controls. Lane 8: the same experiment as in lane 3, but using PNA T10 (SEQ ID NO:2) instead of T4CT5 (SEQ ID NO:8). Lane 9: the same experiment as in lane 3, but using PNA T2CT2CT4 (SEQ ID NO:1) instead of T4CT5 (SEQ ID NO:8). Lane 10: the same experiment as in lane 3, but using the pT9C-5 plasmid instead of the pT9C. In the header PNA T5CT4 (SEQ ID NO:6) is labelled as 1, T10 (SEQ ID NO:2) as 2 and T2CT2CT4 (SEQ ID NO:1) as 3.
The bands observed by gel electrophoresis have the same position and width as the band created by the BamHI restriction enzyme. […] Moreover, under the much milder S1 nuclease treatment necessary to generate the data for the pT9CT9C, the yield of double-stranded breaks in the pT9C-5 plasmid was extremely low (lane 10).

In experiment [3] the test system is pA98 plasmid relaxed circles (rcDNA). The experiment is described as follows: Unwinding of closed circular DNA with PNA. It is filed as binding. The procedure: Relaxed circular DNA was prepared by treating ordinary supercoiled plasmid DNA with an extract containing DNA topoisomerase I, as described by V. I. Lyamichev, et. al., J. Biomolec. Struct. Dynamics, 3, 327-338 (1985). DNA-PNA complexes were obtained by incubation of 1-2 μg of DNA in 5-20 μL TE with 0.4 optical units./mL of PNA for 4 hours at 20-22° C. This corresponded to about 10 times molar excess of PNA to its potential binding sites. Agarose (1.5%) gel electrophoresis was performed in the TAE buffer containing 1 μg/mL of chloroquine at 10° C. for 15 hours at 1.5 V/cm. Tw—dimensional gel electrophoresis was preformed in the first direction (from top to bottom) in the TAE buffer and in the second direction (from left to right) in the same buffer with addition of 1 μg/mL of chloroquine.
In this example, the efficiency of PNA T10 incorporating into the DNA duplex and displacing the DNA T-strand in solution was shown by unwinding of closed circular DNA by PNA. The pA98 plasaid (Example 16) was prepared in the form of relaxed circles (rcDNA). It was expected that complexing with PHA would unwind about 10 turns of the DNA duplex. Because of topological constraints (the two strands in rcDNA were closed and therefore topologically linked), this unwinding would make the rcDNA molecules behave as if they were positively supercoiled by 10 superturns. […]

As to H-T10LysNH2 [PNA H-T10-LysNH2], the “S1 nuclease cutting of linearized plasmid complexed with PNA” value in experiment [1] was “a significant fraction of DNA was cut”. Besides, the “S1 nuclease digestion of pT9CT9C plasmid complexed with PNA” value in experiment [2] is listed as “very weak digestion”. Besides, the “salt concentration tolerated by complex formed at low salt” value in experiment [3] (NaCl) is “at least 500 mM”. Besides, the “turns of the double helix released upon binding of PNA” value in experiment [3] (TE buffer, two-dimensional gel electrophoresis) is reported as 8-10 turns.
